Reference: US20070134259A1, “Methods and compositions for pharmacologially controlled targeted immunotherapy” (priority 2005, published 2007)

How the values were obtained:
purified integrin αvβ3 = target: T1, purified integrin αvβ3 (Homo sapiens, UniProt P05106+P06756); assay: ELISA on purified receptor: RGD-STZ ligand mediated ternary complex formation with anti-STZ rabbit serum; assay type: binding
T1 construct: purchased Chemicon
Procedure: Indirect recognition of integrin by streptavidin mediated by RGD-biotin was used as positive control.
96 well polystyrene plates (Nunc) were coated with 1 μg/ml of purified integrin αvβ3 (Chemicon) in buffer: 50 mM Hepes , 0.1 M NaCl, 2 mM CaCl2, 1 mM MnCl2, 1 mM MgCl2 pH 7.5. Blocking was performed with 3% BSA in the same buffer for at least 1 hr.
Ternary complex formation was obtained in concurrent or sequential mode. For sequential mode experiment the ELISA plate was incubated with RGD-STZ (root of ten dilutions starting from 10 μg/ml); 2 hr, room temperature, followed by anti-STZ rabbit serum diluted 3000 times, 1 hr RT. In the concurrent mode the incubation mixture contained both RGD-STZ and anti-STZ rabbit serum. Serum concentration was kept constant (1/3000) while RGD-STZ concentration was varied as before; incubation time 2 hr. The formed complex was detected with goat anti-Rabbit HRP conjugate. Dilutions were made in same buffer supplemented with 0.05% Tween and 0.1% BSA. BSA was not included in the washing steps.
Solid-phase assays were conducted in two different formats: concurrent and sequential incubation. In the concurrent format, RGD-STZ was premixed with rabbit serum 1E6 and incubated on the plate, which was pre-coated with integrin αvβ3. In the sequential format, RGD-STZ was incubated on the integrin coated plate, washed and rabbit serum 1E6 was applied. In both formats, the signal was developed by detection of rabbit antibodies with anti-rabbit HRP antibody conjugate. […] This range of IBAIT concentrations in which a stable ternary complex is produced constitutes a therapeutic window, where the IBAIT can be applied for targeting immunoglobulins to malignancies.
That is, the sequential addition of antibody results in the continued formation of stable ternary complexes until receptor saturation plateaus.

HTB-14 cells = assay: Ligand-mediated immunostaining of cells via RGD-STZ and anti-STZ serum; assay type: cell-based; conditions: sequential: RGD-STZ, formaldehyde fixation, anti-STZ serum
Procedure: Cells could be stained through the ligand mediated association of antibody to the integrin molecule on the cell.
Ligand-mediated staining of HTB-14 cells was performed by incubations in sequential order. Cell were first treated with RGD-STZ then fixed with formaldehyde and stained using anti-STZ serum.
Cells were cultivated as described above. For staining, 6 well tissue culture plate containing chambered cover glasses was placed on ice and medium (DMEM, 10% FBS) replaced with same medium containing mixture of RGD-STZ and anti-STZ serum premixed at proportion giving highest signal in ELISA assay (˜10 μg of RGD-STZ in ml of rabbit serum). Mixture of RGD-STZ and serum was diluted in medium 30, 300 and 3000 times.
After 30 min of incubation specimens were washed with ice cold medium 3 times and incubated with Goat anti-Rabbit Alexa488 at concentration 10 μg/ml in DMEM. After 3 rinses with ice cold DMEM cells were fixed with 10% paraformaldehyde in PBS at room temperature, washed with PBS and mounted as above.
In some experiments cells were primed with RGD-STZ (50 μg/ml in DMEM) on ice for 20 min. then fixed with paraformaldehyde and stained further like described in first protocol.

T1 sequence (P06756 31-889 limits assumed): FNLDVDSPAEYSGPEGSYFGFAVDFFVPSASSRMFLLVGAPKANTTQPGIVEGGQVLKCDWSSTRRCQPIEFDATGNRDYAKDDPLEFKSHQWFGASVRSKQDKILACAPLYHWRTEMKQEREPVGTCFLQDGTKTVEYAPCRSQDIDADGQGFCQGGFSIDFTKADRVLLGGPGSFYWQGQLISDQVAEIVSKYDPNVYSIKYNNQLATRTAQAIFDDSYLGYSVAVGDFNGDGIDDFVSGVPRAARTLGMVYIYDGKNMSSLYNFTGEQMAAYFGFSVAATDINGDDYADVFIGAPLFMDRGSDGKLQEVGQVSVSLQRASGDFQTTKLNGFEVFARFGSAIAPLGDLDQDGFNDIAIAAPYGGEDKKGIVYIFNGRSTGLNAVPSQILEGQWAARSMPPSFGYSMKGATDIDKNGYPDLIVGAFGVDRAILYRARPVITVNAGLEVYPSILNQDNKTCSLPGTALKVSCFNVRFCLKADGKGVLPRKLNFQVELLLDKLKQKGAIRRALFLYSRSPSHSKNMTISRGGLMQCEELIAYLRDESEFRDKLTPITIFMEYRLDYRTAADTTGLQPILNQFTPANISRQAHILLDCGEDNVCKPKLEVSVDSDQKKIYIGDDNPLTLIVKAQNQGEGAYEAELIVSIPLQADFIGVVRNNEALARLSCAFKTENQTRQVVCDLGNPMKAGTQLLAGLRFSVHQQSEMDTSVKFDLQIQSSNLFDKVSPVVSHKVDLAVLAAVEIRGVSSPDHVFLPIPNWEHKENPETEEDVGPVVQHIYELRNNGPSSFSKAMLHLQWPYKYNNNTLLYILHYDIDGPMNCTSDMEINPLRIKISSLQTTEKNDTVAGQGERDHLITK
T1 sequence (P06756 891-1048 partner limits assumed): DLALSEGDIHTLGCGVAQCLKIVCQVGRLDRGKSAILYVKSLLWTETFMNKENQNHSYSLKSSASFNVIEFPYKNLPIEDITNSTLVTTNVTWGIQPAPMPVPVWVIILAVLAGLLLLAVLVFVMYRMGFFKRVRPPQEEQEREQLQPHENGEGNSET
T1 sequence (P05106 27-788): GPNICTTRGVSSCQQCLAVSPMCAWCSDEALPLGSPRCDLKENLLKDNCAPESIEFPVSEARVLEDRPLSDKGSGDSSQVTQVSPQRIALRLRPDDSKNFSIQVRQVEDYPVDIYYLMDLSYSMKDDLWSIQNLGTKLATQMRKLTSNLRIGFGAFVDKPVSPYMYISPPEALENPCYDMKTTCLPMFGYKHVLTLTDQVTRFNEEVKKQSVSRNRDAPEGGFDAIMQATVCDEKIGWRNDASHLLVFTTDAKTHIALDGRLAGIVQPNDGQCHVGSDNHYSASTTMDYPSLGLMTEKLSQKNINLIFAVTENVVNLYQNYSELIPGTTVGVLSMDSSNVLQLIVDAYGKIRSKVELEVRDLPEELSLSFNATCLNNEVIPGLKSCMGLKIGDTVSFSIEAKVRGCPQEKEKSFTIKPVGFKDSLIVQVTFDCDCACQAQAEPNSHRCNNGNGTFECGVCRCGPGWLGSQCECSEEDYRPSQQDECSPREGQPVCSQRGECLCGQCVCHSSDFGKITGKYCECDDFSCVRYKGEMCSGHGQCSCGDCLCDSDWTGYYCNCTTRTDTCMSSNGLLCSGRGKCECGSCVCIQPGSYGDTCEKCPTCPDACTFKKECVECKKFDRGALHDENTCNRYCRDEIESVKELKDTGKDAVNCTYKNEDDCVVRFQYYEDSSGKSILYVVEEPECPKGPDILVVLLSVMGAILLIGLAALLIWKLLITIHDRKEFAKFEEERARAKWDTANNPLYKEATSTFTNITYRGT

cyclo(-R-G-D-f-K(STZ)) [RGD-STZ]
concentration dependence of ELISA signal (ternary complex formation), concurrent incubation (purified integrin αvβ3; concurrent format: RGD-STZ premixed with rabbit serum, incubated on integrin coated plate, FIG. 5A): bell-shaped concentration dependencies | indirect recognition of the integrin by anti-STZ antibodies mediated by the ligand (purified integrin αvβ3; plates coated with purified αvβ3 integrin, anti-STZ rabbit serum, goat anti-Rabbit HRP detection): excellent indirect recognition | proportion of RGD-STZ and anti-STZ serum giving highest signal in ELISA assay (purified integrin αvβ3; premixed RGD-STZ and anti-STZ serum): ~10 μg of RGD-STZ in ml of rabbit serum | concentration dependence of ELISA signal (ternary complex formation), sequential incubation (purified integrin αvβ3; sequential format: RGD-STZ incubated on integrin coated plate, washed, then rabbit serum, FIG. 5B): signal that steadily increased with increasing RGD-STZ (IBAIT) concentration | ligand-mediated staining pattern of cells (HTB-14 cells): distinct pattern of dots on the plasma membrane as well as general fluorescent illumination of cells
